Reference: patent US20150368242A1, “NOVEL TETRAHYDROPYRIDOPYRIMIDINONE DERIVATIVE” (Ajinomoto Co., Inc., priority 2013, published 2015)
pIC50: −log10 of the molar value. “And” between values parts separate entries of the source, which are not always exact repeats. Identical values can stand only once. Counter-ions that a name gives are not always drawn. Like-named read-outs stand apart in the source and are kept apart here. Values belong to the molecule of their own block, whether it stands above or below them.

Assays:
[1] = system: orally lipid-loaded mouse model (C57BL/6J mice); assay: Test for lipid absorption inhibitory action (orally lipid-loaded mouse model); format: in vivo; conditions: for Lipid absorption inhibition ratio (%): plasma neutral fat AUC up to 6 hours after corn oil; for lipid absorption inhibitory action (in words): 30 mg/kg, Comparative Example 1 at 100 mg/kg
Procedure: The lipid absorption inhibitory action of the compounds of Examples 5 and 60 and the compound of Comparative Example 1 was examined in an orally lipid-loaded mouse model. In this test, 10 to 11-week old male C57BL/6J mice (CLEA Japan, Inc.) were used. After the mice were fasted for 17 hours from the preceding day, blood was collected from the fundus, and further the mice were subjected to forced oral administration of one of the compounds or the medium (0.5% methyl cellulose). Thirty minutes after the administration, tyloxapol (500 mg/kg) was administered into the tail vein, and corn oil (200 μl) was orally administered (n=5-6). Blood was collected via the tail vein 2, 4, and 6 hours after the administration of corn oil, and plasma was obtained by centrifuging the blood. The neutral fat concentration in the plasma was measured by using Triglyceride E-Test Wako (Wako Pure Chemical Industries, Ltd.). The neutral fat concentration in the plasma before the administration of the compound was taken as the value at 0 hours, and the area under the curve (AUC) of the neutral fat concentration in the plasma up to 6 hours after the administration of corn oil was calculated. From the average value of the AUC of each administration group, the lipid absorption inhibition ratio was obtained by using the following formula.
Lipid absorption inhibition ratio (%)=(Average value of AUC of medium administration group-Average value of AUC of compound administration group)/Average value of AUC of medium administration group×100

[2] = biological target: T1, recombinant human MGAT2 enzyme (Homo sapiens, UniProt Q3SYC2); assay: Test for human MGAT2 activity inhibitory action (14C-oleoyl CoA, recombinant enzyme microsomes); format: biochemical; parameters: key to Potency relative to Comparative Example 1 (higher = more potent): % inhibition = {1−(C−B)/(A−B)}×100, B = 10 μM Comparative Example 1; conditions: for pIC50: read-out: IC50
T1 construct: made in house; host or cells: CHO-K1 (Jump-In CHO-K1 Kit, Life Technologies); microsomal fraction used as the enzyme solution
T1 sequence (Q3SYC2 whole entry): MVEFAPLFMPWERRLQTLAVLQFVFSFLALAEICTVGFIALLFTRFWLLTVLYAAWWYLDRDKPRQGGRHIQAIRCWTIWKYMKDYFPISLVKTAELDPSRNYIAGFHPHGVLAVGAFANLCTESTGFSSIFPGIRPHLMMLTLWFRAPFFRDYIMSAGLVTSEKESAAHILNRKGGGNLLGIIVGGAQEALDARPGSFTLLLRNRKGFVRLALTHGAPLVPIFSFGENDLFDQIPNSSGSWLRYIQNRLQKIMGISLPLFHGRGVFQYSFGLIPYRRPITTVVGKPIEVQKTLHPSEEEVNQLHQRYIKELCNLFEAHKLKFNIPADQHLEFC
Method in brief: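 Microsomes from CHO-K1 cells expressing human MGAT2 (0.67 μg/mL) reacted 30 min at 37 °C with 50 μM 2-monooleoyl glycerol, 50 μM oleoyl CoA, 2.2 μM 1-14C-oleoyl CoA and 8.3 μM orlistat in 50 mM Tris pH 7.4, 6 mM MgCl2, 2 mg/mL BSA, 0.3% DMSO. Heptane-extracted 14C counted; inhibition normalized between no-compound and 10 μM reference-compound controls.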

[3] = system: C57BL/6J mice fed on high-fat diet (diet-induced obesity mouse model); assay: Test for anti-obesity action in high-fat diet fed mice; format: in vivo; conditions: for Body Fat Weight, average value (difference from medium administration group) / Fat-Free Weight, average value (difference from medium administration group): Day 21, quantitative NMR; for Percent Body Weight Change, average value (difference from medium administration group): forced oral once per day Day 1 to Day 22, Day 23, n=8
Text: The anti-obesity action of the compound of Example 5 was examined in C57BL/6J mice fed on high-fat diet (Research Diets D12492). Thirteen-week old male C57BL/6J-DIO mice (CHARLES RIVER LABORATORIES JAPAN, INC.) were purchased, and fed in animal facilities under a 12-hour light/dark cycle for 13 weeks on the diet of D12492. From six days before the administration of the compound, the animals were habituated by inserting a tube for forced oral administration into the stomach once per day. One day before the administration of the compound, the mice were randomized on the basis of the body weight, and divided into groups (n=8). From Day 1 to Day 22, forced oral administration of the compound or a medium (0.5% methyl cellulose) was conducted once per day. The body weight was measured every day, and the body fat weight and the fat-free weight were measured by using a quantitative NMR apparatus (EcoMRI, Hitachi Aloka Medical, Ltd.) on Day 21.
The percent body weight change (Day 23, Table 6), the body fat weight (Day 21, Table 7), and the fat-free weight (Day 21, Table 8) were each expressed in terms of the difference between the average value of the compound administration group and the average value of the medium administration group, and the difference between the groups was subjected to Dunnett's multiple comparison test (significance level p=0.05). Note that, in Tables 6 to 8, “n.s.” means a non-significant difference.

[4] = Table 5, relative to Comparative Example 1 measured in the same run
[5] = 30 mg/kg, Dunnett's test versus medium group
[6] = First Test (Table 3), relative to Comparative Example 1, greater value = higher inhibitory action
[7] = Second Test (Table 4), relative to Comparative Example 1
[8] = Table 5, Examples 25 to 60, same method

SMILES: COc1ccc(CNc2nc3c(c(=O)n2-c2ccccc2)CN(C(=O)Nc2ccc(C(F)(F)F)cc2)CC3)cc1 [Comparative Example 1, reference compound]
Lipid absorption inhibition ratio (%) ([1]; Test 1, 30 mg/kg oral): 34%
Lipid absorption inhibition ratio (%) ([1]; Test 1, 100 mg/kg oral): 44%
Lipid absorption inhibition ratio (%) ([1]; Test 2, 100 mg/kg oral): 41%
pIC50 ([2]; First Test (Table 3)): 6.65
pIC50 ([2]; Second Test (Table 4)): 6.52
IC50 ([2]; Table 5, Comparative Example 1 measured alongside the Example, read-out: IC50 (nM) of Comp. Ex. 1): 210 nM and 170 nM and 150 nM and 140 nM and 295 nM and 137 nM and 180 nM and 250 nM and 300 nM and 270 nM and 240 nM and 260 nM and 160 nM and 244 nM and 200 nM

SMILES: O=C(CCNCC1COc2ccccc2O1)N1CCc2nc(SC3CCC3)n(-c3ccccc3)c(=O)c2C1 (stereo not drawn) [Example 60, 2-cyclobutylsulfanyl-6-[3-(2,3-dihydro-1,4-benzodioxin-3-ylmethylamino)propanoyl]-3-phenyl-7,8-dihydro-5H-pyrido[4,3-d]pyrimidin-4-one trifluoroacetate]
lipid absorption inhibitory action (in words) [1]: comparable to that of the compound of Example 5
Lipid absorption inhibition ratio (%) ([1]; Test 3, 30 mg/kg oral): 42%
IC50 ([2]; IC50 (nM), Table 5, Examples 25 to 60, same method): 1.1 nM
vs Comp. Ex. 1 [2, 4]: 140

SMILES: O=C(CNCCCCCOc1ccc(C(F)(F)F)cc1)N1CCc2nc(SC3CCC3)n(-c3ccccc3)c(=O)c2C1 [Example 5, 2-cyclobutylsulfanyl-3-phenyl-6-[2-[5-[4-(trifluoromethyl)phenoxy]pentylamino]acetyl]-7,8-dihydro-5H-pyrido[4,3-d]pyrimidin-4-one trifluoroacetate]
Body Fat Weight, average value (difference from medium administration group) ([3]; 10 mg/kg oral once per day): -2.22 g
Fat-Free Weight, average value (difference from medium administration group) ([3]; 10 mg/kg oral once per day): -0.34 g
Percent Body Weight Change, average value (difference from medium administration group) ([3]; 10 mg/kg): −4.15%
Body Fat Weight, average value (difference from medium administration group) ([3]; 30 mg/kg oral once per day): -4.26 g
Fat-Free Weight, average value (difference from medium administration group) ([3]; 30 mg/kg oral once per day): -0.98 g
Percent Body Weight Change, average value (difference from medium administration group) ([3]; 30 mg/kg): −9.56%
body fat weight (in words) [3, 5]: significantly lowered
percent body weight change (in words) [3, 5]: significantly lowered
decrease of the fat-free body weight (in words) ([3]; 10 and 30 mg/kg, Dunnett's test versus medium group): did not have a statistically significant difference
lipid absorption inhibitory action (in words) [1]: not inferior to that of the compound of Comparative Example 1
Lipid absorption inhibition ratio (%) ([1]; Test 2, 30 mg/kg oral): 45%
Lipid absorption inhibition ratio (%) ([1]; Test 3, 30 mg/kg oral): 42%
vs Comp. Ex. 1 [2, 6]: 349
IC50 ([2]; IC50 (nM), First Test (Table 3)): 0.64 nM

SMILES: O=C(CCNCc1ccccc1)N1CCc2nc(SC3CCC3)n(C3CCCC3)c(=O)c2C1 [Example 15, 6-[3-(benzylamino)propanoyl]-2-cyclobutylsulfanyl-3-cyclopentyl-7,8-dihydro-5H-pyrido[4,3-d]pyrimidin-4-one trifluoroacetate]
pIC50 ([2]; Second Test (Table 4)): 8.62
Potency relative to Comparative Example 1 (higher = more potent) [2, 7]: 129

SMILES: O=C(CCNCc1ccc(OC(F)(F)F)cc1)N1CCc2nc(SC3CCC3)n(-c3ccccc3)c(=O)c2C1 [Example 24, 2-cyclobutylsulfanyl-3-phenyl-6-[3-[[4-(trifluoromethoxy)phenyl]methylamino]propanoyl]-7,8-dihydro-5H-pyrido[4,3-d]pyrimidin-4-one trifluoroacetate)]
pIC50 ([2]; Second Test (Table 4)): 8.85
Potency relative to Comparative Example 1 (higher = more potent) [2, 7]: 221

SMILES: O=C(CNCCOc1ccc(F)c(F)c1)N1CCc2nc(SC3CCC3)n(-c3ccccc3)c(=O)c2C1 [Example 9, 2-cyclobutylsulfanyl-6-[2-[2-(3,4-difluorophenoxy)ethylamino]acetyl]-3-phenyl-7,8-dihydro-5H-pyrido[4,3-d]pyrimidin-4-one trifluoroacetate]
pIC50 ([2]; First Test (Table 3)): 8.41
Potency relative to Comparative Example 1 (higher = more potent) [2, 6]: 57

SMILES: O=C(CNCCCc1ccccc1)N1CCc2nc(SC3CCC3)n(-c3ccccc3)c(=O)c2C1 [Example 2, 2-cyclobutylsulfanyl-3-phenyl-6-[2-(3-phenylpropylamino)acetyl]-7,8-dihydro-5H-pyrido[4,3-d]pyrimidin-4-one trifluoroacetate]
pIC50 ([2]; First Test (Table 3)): 8.89
Potency relative to Comparative Example 1 (higher = more potent) [2, 6]: 171

SMILES: O=C(CNCc1ccc(COc2ccccc2)cc1)N1CCc2nc(SC3CCC3)n(-c3ccccc3)c(=O)c2C1 [Example 7, 2-cyclobutylsulfanyl-6-[2-[[4-(phenoxymethyl)phenyl]methylamino]acetyl]-3-phenyl-7,8-dihydro-5H-pyrido[4,3-d]pyrimidin-4-one trifluoroacetate]
pIC50 ([2]; First Test (Table 3)): 8.64
Potency relative to Comparative Example 1 (higher = more potent) [2, 6]: 75

Other lines, results leading:

pIC50 [2, 8]: 8.66
Potency relative to Comparative Example 1 (higher = more potent) [2, 4]: 111
SMILES: [2H]c1c([2H])c([2H])c(C([2H])([2H])NCCC(=O)N2CCc3nc(SC4CCC4)n(-c4ccccc4)c(=O)c3C2)c([2H])c1[2H] [Example 25, 2-cyclobutylsulfanyl-6-[3-[[dideuterio-(2,3,4,5,6-pentadeuteriophenyl)methyl]amino]propanoyl]-3-phenyl-7,8-dihydro-5H-pyrido[4,3-d]pyrimidin-4-one trifluoroacetate]

pIC50 [2, 8]: 9.15
Potency relative to Comparative Example 1 (higher = more potent) [2, 4]: 205
SMILES: C[C@@H](CNCCC(=O)N1CCc2nc(SC3CCC3)n(-c3ccccc3)c(=O)c2C1)c1ccccc1 [Example 36]

pIC50 [2, 8]: 8.48
Potency relative to Comparative Example 1 (higher = more potent) [2, 4]: 63
SMILES: O=C(CNCCCCCOC1CCC(F)(F)CC1)N1CCc2nc(SC3CCC3)n(-c3ccccc3)c(=O)c2C1 [Example 58, 2-cyclobutylsulfanyl-6-[2-[5-(4,4-difluorocyclohexoxy)pentylamino]acetyl]-3-phenyl-7,8-dihydro-5H-pyrido[4,3-d]pyrimidin-4-one trifluoroacetate]

pIC50 [2, 8]: 8.96
Potency relative to Comparative Example 1 (higher = more potent) [2, 4]: 130
SMILES: O=C(CCNCc1c(F)cccc1F)N1CCc2nc(SC3CCC3)n(-c3ccccc3)c(=O)c2C1 [Example 35, 2-cyclobutylsulfanyl-6-[3-[(2,6-difluorophenyl)methylamino]propanoyl]-3-phenyl-7,8-dihydro-5H-pyrido[4,3-d]pyrimidin-4-one trifluoroacetate]

pIC50 [2, 8]: 9.00
Potency relative to Comparative Example 1 (higher = more potent) [2, 4]: 196
SMILES: Cc1cc2cccc(CNCCC(=O)N3CCc4nc(SC5CCC5)n(-c5ccccc5)c(=O)c4C3)c2o1 [Example 26, 2-cyclobutylsulfanyl-6-[3-[(2-methylbenzofuran-7-yl)methylamino]propanoyl]-3-phenyl-7,8-dihydro-5H-pyrido[4,3-d]pyrimidin-4-one trifluoroacetate]

pIC50 [2, 8]: 8.96
SMILES: C[C@@H](NCCC(=O)N1CCc2nc(SC3CCC3)n(-c3ccccc3)c(=O)c2C1)c1ccccc1 [Example 41, 2-cyclobutylsulfanyl-3-phenyl-6-[3-[[(1R)-1-phenylethyl]amino]propanoyl]-7,8-dihydro-5H-pyrido[4,3-d]pyrimidin-4-one trifluoroacetate]
